Measurements taken from paper PMC4715021, “^177Lu-labelled macrocyclic bisphosphonates for targeting bone metastasis in cancer treatment” (EJNMMI Research, 2016).
Where “and” joins values, the source holds several entries; their conditions need not be identical. Equal entries are not always repeated.

Key:
[1] = Ex vivo biodistribution of 177Lu-complexes in Wistar rats; conditions: for Biodistribution of radioactivity, Adipose tissue / Biodistribution of radioactivity, Adrenal gland / Biodistribution of radioactivity, Blood / Biodistribution of radioactivity, Brain / Biodistribution of radioactivity, Femur / Biodistribution of radioactivity, Harderian gland / Biodistribution of radioactivity, Heart / Biodistribution of radioactivity, Kidneys / Biodistribution of radioactivity, Liver / Biodistribution of radioactivity, Lung / Biodistribution of radioactivity, Muscle / Biodistribution of radioactivity, Pancreas / Biodistribution of radioactivity, Spleen / Biodistribution of radioactivity, Testes / Biodistribution of radioactivity, Thymus: i.v.
Excerpt: (§1) The experiments were realized corresponding to the German animal welfare regulations and institutional guidelines and with the permission of the local animal research committee at the Landesdirektion, Dresden. All experimental procedures are following the guidelines of the European Convention for the Protection of Vertebrate Animals used for Experimental and other Scientific Purposes (ETS No. 123). Male Wistar rats weighing 157.69 ± 17.10 g (mean ± SD, N = 35) were purchased from Unilever (HsdCpb:WU, Harlan Winkelmann, Borchen, Germany). Anesthetization was initiated and maintained by desflurane, and animals were put in the supine position and placed on a heating pad to maintain body temperature. A needle catheter was used for administration of the tracers in the tail vein. A second catheter was introduced into the right femoral artery for the extraction of blood samples for metabolite analysis, which was routinely done during SPECT/CT measurements.
The male Wistar rats received a short-term anesthetization by desflurane inhalation. Mean activities of 2.36 ± 0.27 MBq/kg of the ^177Lu-labelled tracers in isotonic saline were injected in a volume of 0.5 mL in the tail vein, with the following specific details: [^177Lu]citrate: 2.56 ± 0.07 MBq/kg, 128.58 body weight (BW, g), n = 4 (g); [^177Lu]BPAMD: 2.33 ± 0.11 MBq/kg, 159.41 BW (g), n = 4 (g); [^177Lu]BPAPD: 2.58 ± 0.24 MBq/kg, 156.38 BW (g), n = 4 (g); [^177Lu]BPPED: 2.27 ± 0.25 MBq/kg, 153.43 BW (g), n = 4 (g); [^177Lu]NO2AP^BP: 2.52 ± 0.25 MBq/kg, 173.82 BW (g), n = 4 (g); [^177Lu]DOTA(M^BP)2: 1.80 ± 0.10 MBq/kg, 181.64 BW (g), n = 4 (g); [^177Lu]DO2A(P^BP)2: 2.46 ± 0.15 MBq/kg, 150.60 BW (g), n = 4 (g). The compounds [^177Lu]DOTA(M^BP)2, [^177Lu]BPPED, and [^177Lu]BPAMD were further chosen for a biodistribution study after 8 days p.i. A mean activity of 19.0 ± 2.5 MBq/kg was injected. Animals were sacrificed after 5 min, 60 min, and 8 days p.i. Organs of interest were excised rapidly and weighed, and the ^177Lu activity was determined with a Wallac WIZARD automatic gamma counter (PerkinElmer, Germany) and decay corrected. The distribution data are expressed in %ID or are normalized to the BW as standard uptake value (SUV), which was calculated with the formula: SUV = (activity per g tissue)/(injected activity) × BW. The skeleton weight was calculated using the following: skeleton weight = 9.66 + 0.0355 × BW, and the total activities associated with the skeleton were calculated by using the activity concentration in the femur and the total skeleton weight.

[2] = Metabolite analysis and in vivo stability, arterial blood and urine samples; design: species or system Wistar rats
Excerpt: as §1
Arterial blood plasma samples were taken during SPECT/CT examinations after 1, 3, 5, 10, 20, 30, 60, and 120 min. p.i., and the in vivo metabolism of [^177Lu]BPAMD, [^177Lu]BPAPD, [^177Lu]BPPED, [^177Lu]NO2AP^BP, [^177Lu]DOTA(M^BP)2, and [^177Lu]DO2A(P^BP)2 was analyzed. Plasma was separated by centrifugation (3 min, 11,000×g) followed by precipitation of the plasma proteins with ice-cold methanol (1.5 parts per 1 part plasma) and centrifugation (3 min, 11,000×g). The supernatants were analyzed by radio-TLC and HPLC using the abovementioned methods for quality control. Additionally, urine samples were treated in the same way prior radio-TLC and radio-HPLC analysis.

[3] = 5 min p.i., mean of four animals
[4] = 60 min p.i., mean of four animals
[5] = 8 days p.i., mean for five animals

O=C(O)CN1CCN(CC(=O)O)CCN(CC(=O)NC(P(=O)(O)O)P(=O)(O)O)CCN(CC(=O)O)CC1 [[^177Lu]BPAMD, metal not drawn]
Ratio Bone/Adipose tissue ([1]; 5 min p.i.): 8.0
Ratio Bone/Adrenal gland ([1]; 5 min p.i.): 8.4
Ratio Bone/Blood ([1]; 5 min p.i.): 3.7
Ratio Bone/Brain ([1]; 5 min p.i.): 83.9
Ratio Bone/Harderian gland ([1]; 5 min p.i.): 9.3
Ratio Bone/Heart ([1]; 5 min p.i.): 9.3
Ratio Bone/Kidneys ([1]; 5 min p.i.): 0.7
Ratio Bone/Liver ([1]; 5 min p.i.): 12.9
Ratio Bone/Lung ([1]; 5 min p.i.): 5.5
Ratio Bone/Muscle ([1]; 5 min p.i.): 17.7
Ratio Bone/Pancreas ([1]; 5 min p.i.): 10.8
Ratio Bone/Spleen ([1]; 5 min p.i.): 9.1
Ratio Bone/Testes ([1]; 5 min p.i.): 13.4
Ratio Bone/Thymus ([1]; 5 min p.i.): 11.6
Biodistribution of radioactivity, Adipose tissue [1, 3]: 0.42 SUV
Biodistribution of radioactivity, Adrenal gland [1, 3]: 0.40 SUV
Biodistribution of radioactivity, Blood [1, 3]: 0.90 SUV
Biodistribution of radioactivity, Brain [1, 3]: 0.04 SUV
Biodistribution of radioactivity, Femur [1, 3]: 3.36 SUV
Biodistribution of radioactivity, Harderian gland [1, 3]: 0.36 SUV
Biodistribution of radioactivity, Heart [1, 3]: 0.36 SUV
Biodistribution of radioactivity, Kidneys [1, 3]: 4.53 SUV
Biodistribution of radioactivity, Liver [1, 3]: 0.26 SUV
Biodistribution of radioactivity, Lung [1, 3]: 0.61 SUV
Biodistribution of radioactivity, Muscle [1, 3]: 0.19 SUV
Biodistribution of radioactivity, Pancreas [1, 3]: 0.31 SUV
Biodistribution of radioactivity, Spleen [1, 3]: 0.37 SUV
Biodistribution of radioactivity, Testes [1, 3]: 0.25 SUV
Biodistribution of radioactivity, Thymus [1, 3]: 0.29 SUV
Ratio Bone/Adipose tissue ([1]; 60 min p.i.): 134.5
Ratio Bone/Adrenal gland ([1]; 60 min p.i.): 109.6
Ratio Bone/Blood ([1]; 60 min p.i.): 135.6
Ratio Bone/Brain ([1]; 60 min p.i.): 613.4
Ratio Bone/Harderian gland ([1]; 60 min p.i.): 118.8
Ratio Bone/Heart ([1]; 60 min p.i.): 210.1
Ratio Bone/Kidneys ([1]; 60 min p.i.): 14.0
Ratio Bone/Liver ([1]; 60 min p.i.): 127.5
Ratio Bone/Lung ([1]; 60 min p.i.): 69.1
Ratio Bone/Muscle ([1]; 60 min p.i.): 251.7
Ratio Bone/Pancreas ([1]; 60 min p.i.): 136.4
Ratio Bone/Spleen ([1]; 60 min p.i.): 68.2
Ratio Bone/Testes ([1]; 60 min p.i.): 179.1
Ratio Bone/Thymus ([1]; 60 min p.i.): 58.6
Biodistribution of radioactivity, Adipose tissue [1, 4]: 0.04 SUV
Biodistribution of radioactivity, Adrenal gland [1, 4]: 0.04 SUV
Biodistribution of radioactivity, Blood [1, 4]: 0.04 ± 0.01 SUV and 0.04 SUV
Biodistribution of radioactivity, Brain [1, 4]: 0.01 SUV
Biodistribution of radioactivity, Femur [1, 4]: 4.84 ± 0.44 SUV and 4.84 SUV
Biodistribution of radioactivity, Harderian gland [1, 4]: 0.04 SUV
Biodistribution of radioactivity, Heart [1, 4]: 0.02 SUV
Biodistribution of radioactivity, Kidneys [1, 4]: 0.35 SUV
Biodistribution of radioactivity, Liver [1, 4]: 0.04 SUV
Biodistribution of radioactivity, Lung [1, 4]: 0.07 SUV
Biodistribution of radioactivity, Muscle [1, 4]: 0.02 SUV
Biodistribution of radioactivity, Pancreas [1, 4]: 0.04 SUV
Biodistribution of radioactivity, Spleen [1, 4]: 0.07 SUV
Biodistribution of radioactivity, Testes [1, 4]: 0.03 SUV
Biodistribution of radioactivity, Thymus [1, 4]: 0.08 SUV
Ratio Bone/Adipose tissue ([1]; 8 days p.i.): 1158
Ratio Bone/Adrenal gland ([1]; 8 days p.i.): 547
Ratio Bone/Blood ([1]; 8 days p.i.): 6703
Ratio Bone/Brain ([1]; 8 days p.i.): 1405
Ratio Bone/Harderian gland ([1]; 8 days p.i.): 48
Ratio Bone/Heart ([1]; 8 days p.i.): 885
Ratio Bone/Kidneys ([1]; 8 days p.i.): 66
Ratio Bone/Liver ([1]; 8 days p.i.): 203
Ratio Bone/Lung ([1]; 8 days p.i.): 634
Ratio Bone/Muscle ([1]; 8 days p.i.): 37
Ratio Bone/Pancreas ([1]; 8 days p.i.): 851
Ratio Bone/Spleen ([1]; 8 days p.i.): 257
Ratio Bone/Testes ([1]; 8 days p.i.): 1136
Ratio Bone/Thymus ([1]; 8 days p.i.): 787
Biodistribution of radioactivity, Adipose tissue [1, 5]: 0.004 SUV
Biodistribution of radioactivity, Adrenal gland [1, 5]: 0.009 SUV
Biodistribution of radioactivity, Blood [1, 5]: 0.001 SUV
Biodistribution of radioactivity, Brain [1, 5]: 0.004 SUV
Biodistribution of radioactivity, Femur [1, 5]: 5.039 SUV
Biodistribution of radioactivity, Harderian gland [1, 5]: 0.105 SUV
Biodistribution of radioactivity, Heart [1, 5]: 0.006 SUV
Biodistribution of radioactivity, Kidneys [1, 5]: 0.076 SUV
Biodistribution of radioactivity, Liver [1, 5]: 0.025 SUV
Biodistribution of radioactivity, Lung [1, 5]: 0.008 SUV
Biodistribution of radioactivity, Muscle [1, 5]: 0.136 SUV
Biodistribution of radioactivity, Pancreas [1, 5]: 0.006 SUV
Biodistribution of radioactivity, Spleen [1, 5]: 0.020 SUV
Biodistribution of radioactivity, Testes [1, 5]: 0.004 SUV
Biodistribution of radioactivity, Thymus [1, 5]: 0.006 SUV
Total skeletal retention ([1]; 8 days p.i., calculated from femur activity concentration and total skeleton weight): constant over 8 days
Total skeleton retention ([1]; after 60 min, calculated from femur activity concentration and total skeleton weight): 46.7 ± 5.3 %ID
Blood half-life of the slow component (t1/2(β)) ([2]; arterial blood, single intravenous injection): 23.3 min
Metabolization in blood samples (radio-HPLC and TLC) ([2]; within a period of 120 min): no evidence of any metabolization
